Patent publication US7122624B2, “Parathyroid hormone receptor ligands” (The United States of America as represented by the …, priority 1999, dated 2006)
Read-outs that look alike come from different tables or passages of the source. Non-standard residues stand in square brackets, D forms with d. Residues, ends and D or L forms follow the SMILES beside them. Tyr(3-I) = N[C@@H](Cc1ccc(O)c(I)c1)C(=O)O

Experiments:
Parameters in all cases: expressed in transfected cells
human PTH1 receptor [1] = molecular target: T1, human PTH1 receptor (Homo sapiens, UniProt Q03431); experiment: cAMP accumulation in HEK293 cells stably expressing the human PTH1 receptor (293PTH1); assay type: cell-based; conditions: 1 μM peptide
T1 sequence (Q03431 27-593): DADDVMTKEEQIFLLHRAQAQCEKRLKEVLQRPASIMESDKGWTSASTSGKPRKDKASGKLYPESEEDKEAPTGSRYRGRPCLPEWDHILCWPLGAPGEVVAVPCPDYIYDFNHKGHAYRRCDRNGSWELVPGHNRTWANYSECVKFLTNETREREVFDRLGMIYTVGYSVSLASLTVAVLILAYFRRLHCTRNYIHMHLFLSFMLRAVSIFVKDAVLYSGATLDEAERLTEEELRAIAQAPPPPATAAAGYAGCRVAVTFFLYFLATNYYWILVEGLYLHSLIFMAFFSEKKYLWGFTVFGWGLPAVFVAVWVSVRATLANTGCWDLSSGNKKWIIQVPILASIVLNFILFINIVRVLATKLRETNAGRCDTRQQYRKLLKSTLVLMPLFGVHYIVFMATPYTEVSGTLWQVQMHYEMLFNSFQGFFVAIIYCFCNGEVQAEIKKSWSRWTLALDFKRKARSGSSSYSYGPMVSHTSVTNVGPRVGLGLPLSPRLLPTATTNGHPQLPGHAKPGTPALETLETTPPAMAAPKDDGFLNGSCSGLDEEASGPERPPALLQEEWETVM

PTH2 receptor = PTH2 receptor (Homo sapiens, UniProt P49190); experiment: cAMP accumulation in HEK293 cells stably expressing the human PTH2 receptor (293PTH2); assay type: cell-based; conditions: 1 μM peptide
human PTH1 receptor [2] = molecular target: T1, human PTH1 receptor; experiment: [125I]TIP(7–39) saturation and kinetic binding to the human PTH1 receptor in HEK293 cell membranes
Procedure: Binding of [^125I]TIP(7–39) to HEK293 membranes expressing the PTH1 receptor (FIGS. 21 and 22) was performed using rapid filtration to separate bound and free radioligand as described in Examples, using the assay buffer described above. Incubations were carried out in 96-well polypropylene plates. The incubation mixture was transferred to a polyvinylidene fluoride filtration plate (MAHVN45, Millipore, Bedford, Mass.) and the membranes collected by rapid filtration using a Millipore Multiscreen vacuum manifold. In saturation experiments, varying concentrations of [^125I]TIP(7–39) were incubated in triplicate with 10 μg membranes in the absence or presence of 1 μM unlabeled TIP(7–39) (for measurement of total binding and non-specific binding, respectively) for 1 hour at 21° C. In radioligand association experiments, radioligand and buffer were brought to 21° C. by incubation in a water bath for 15 minutes. Similarly pre-warmed membranes were then added to the wells at various time points and the assay wells harvested simultaneously. Non-specific binding in these experiments was defined using 300 nM unlabeled TIP(7–39), incubated with membranes and radioligand for 1 minute and 60 minutes. In the experiment in FIG. 23 a second, unlabeled ligand was included in the assay incubation in order to estimate the association and dissociation rate constants of the unlabeled ligand (see below). In dissociation experiments radioligand and membranes were equilibrated for 60 minutes prior to addition of unlabeled TIP(7–39) (300 nM final concentration) at various time points. All time points were harvested simultaneously. (As a result the shorter time points of the time course were equilibrated with radioligand for between 1 and 2 hours.) Non-specific binding was defined using 300 nM unlabeled TIP(7–39), which was included in the equilibration phase of the assay.
[^125I]TIP(7–39) saturation of the PTH1 receptor was analyzed as follows: First, non-specific binding (measured in the presence of 1 μM TIP(7–39)) was estimated as a fraction of the free radioligand concentration by linear regression. The values of KD and Bmax were obtained by fitting total binding data (measured in the absence of unlabeled ligand) to the following equation using Prism 2.01:
[^125I]TIP(7–39) association data (total binding) were fitted to a bi-exponential association equation to account for association to specific and non-specific sites (FIG. 23). This procedure was used because the value of non-specific binding measured after 60 minutes was slightly greater than the value measured after 1 minute. In the analysis the equilibrium level of non-specific binding was fixed at that measured at 60 minutes. The observed association rate constant for non-specific binding was high (>2 min^−1). The observed association rate of specific radioligand (L) binding (kon(obs)) was fitted by linear regression to the equation kon(obs)=koff+kon[L] where kon and koff are the association and dissociation rate constants respectively. [^125I]TIP(7–39) dissociation data were fitted to a mono-exponential dissociation equation.
The association and dissociation rate constants of unlabeled ligands were determined using the method devised by Motulsky and Mahan, Mol Pharmacol 25, 1–9, 1984, in which association of a radiolabeled antagonist ([^125I]TIP(7–39)) is measured in the presence of a fixed concentration of the unlabeled ligand. […]

Chain of PTH2 receptor (P49190 25-550): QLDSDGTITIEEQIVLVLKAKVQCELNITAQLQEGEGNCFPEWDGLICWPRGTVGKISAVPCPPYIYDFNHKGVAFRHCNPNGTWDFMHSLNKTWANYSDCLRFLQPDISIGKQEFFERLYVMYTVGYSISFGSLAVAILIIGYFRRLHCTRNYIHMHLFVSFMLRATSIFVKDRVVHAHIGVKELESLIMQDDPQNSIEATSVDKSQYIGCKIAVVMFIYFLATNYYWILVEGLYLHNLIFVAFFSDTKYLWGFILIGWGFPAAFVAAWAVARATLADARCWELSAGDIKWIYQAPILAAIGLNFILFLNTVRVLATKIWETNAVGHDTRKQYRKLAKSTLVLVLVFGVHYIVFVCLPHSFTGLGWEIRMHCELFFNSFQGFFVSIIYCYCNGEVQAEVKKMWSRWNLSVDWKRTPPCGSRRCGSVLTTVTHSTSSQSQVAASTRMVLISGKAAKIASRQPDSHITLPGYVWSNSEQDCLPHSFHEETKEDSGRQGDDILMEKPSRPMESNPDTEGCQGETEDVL

| stimulation of cAMP accumulation (human PTH1 receptor [1]) | stimulation of cAMP accumulation (PTH2 receptor) | koff (human PTH1 receptor [2]; directly measured from dissociation time course, read-out: dissociation rate constant (k2) (converted)) [s⁻¹] | koff (human PTH1 receptor [2]; estimate from the plot of kon(obs) vs. concentration of radioligand, read-out: dissociation rate constant (converted)) [s⁻¹] | kon (human PTH1 receptor [2]; held constant in Equation 4 analysis, read-out: association rate constant (k1) (converted)) [M⁻¹ s⁻¹] | Bmax (human PTH1 receptor [2]; saturation experiments, n=3) [pmol/mg] | SMILES |
| --- | --- | --- | --- | --- | --- | --- |
| approximately 50 fold | approximately 50 fold |  |  |  |  | CC[C@H](C)[C@H](NC(=O)[C@H](CCC(=O)O)NC(=O)[C@H](CO)NC(=O)[C@@H](NC(=O)[C@H](C)N)C(C)C)C(=O)N[C@@H](CCC(N)=O)C(=O)N[C@@H](CC(C)C)C(=O)N[C@@H](CCSC)C(=O)N[C@@H](Cc1c[nH]cn1)C(=O)N[C@@H](CC(N)=O)C(=O)N[C@@H](CC(C)C)C(=O)NCC(=O)N[C@@H](CCCCN)C(=O)N[C@@H](Cc1c[nH]cn1)C(=O)N[C@@H](CC(C)C)C(=O)N[C@@H](C)C(=O)N[C@@H](CO)C(=O)N[C@H](C(=O)N[C@@H](CCC(=O)O)C(=O)N[C@@H](CCCNC(=N)N)C(=O)N[C@@H](CCSC)C(=O)N[C@@H](CCC(N)=O)C(=O)N[C@@H](Cc1c[nH]c2ccccc12)C(=O)N[C@@H](CC(C)C)C(=O)N[C@@H](CCCNC(=N)N)C(=O)N[C@@H](CCCCN)C(=O)N[C@@H](CCCCN)C(=O)N[C@@H](CC(C)C)C(=O)N[C@@H](CCC(N)=O)C(=O)N[C@@H](CC(=O)O)C(=O)N[C@H](C(=O)N[C@@H](Cc1c[nH]cn1)C(=O)N[C@@H](CC(N)=O)C(=O)N[C@@H](Cc1ccccc1)C(=O)O)C(C)C)C(C)C [PTH] |
|  |  | 0.00085 | 0.00128 | 1.48e+06 | 1.3 ± 0.1 | CSCC[C@H](NC(=O)[C@H](Cc1ccc(O)c(I)c1)NC(=O)[C@H](CO)NC(=O)[C@H](CC(N)=O)NC(=O)[C@H](CC(C)C)NC(=O)[C@H](Cc1c[nH]c2ccccc12)NC(=O)[C@H](Cc1c[nH]cn1)NC(=O)[C@H](CCCNC(=N)N)NC(=O)[C@H](CCCNC(=N)N)NC(=O)[C@H](CCC(=O)O)NC(=O)[C@H](CC(C)C)NC(=O)[C@H](C)NC(=O)[C@H](C)NC(=O)[C@H](CC(C)C)NC(=O)[C@H](CC(C)C)NC(=O)[C@H](CCCNC(=N)N)NC(=O)[C@H](C)NC(=O)[C@H](CCCNC(=N)N)NC(=O)[C@H](CCC(=O)O)NC(=O)[C@H](CCCNC(=N)N)NC(=O)[C@H](Cc1ccccc1)NC(=O)[C@H](C)NC(=O)[C@H](C)NC(=O)[C@@H](N)CC(=O)O)C(=O)N[C@@H](Cc1c[nH]cn1)C(=O)N[C@@H](CCCCN)C(=O)N[C@@H](CC(C)C)C(=O)N[C@@H](CC(C)C)C(=O)N[C@H](C(=O)N[C@@H](CC(C)C)C(=O)N[C@@H](CC(=O)O)C(=O)N[C@@H](C)C(=O)N1CCC[C@H]1C(=O)O)C(C)C [[^125I]TIP(7–39)] (H-DAAFRERARLLAALERRHWLNS[Tyr(3-I)]MHKLLVLDAP-OH; N-terminus and C-terminus assumed) |
